Results from article PMC11758220, “Identification of a Privileged Scaffold for Inhibition of Sterol Transport Proteins through the Synthesis and Ring Distortion of Diverse, Pseudo-Natural Products” (ACS Central Science, 2025).

Molecular target: T1, Aster-A (Homo sapiens, UniProt Q96CP6)
T1 construct: endogenous in cells; host or cells: Jurkat cells
T1 sequence (Q96CP6 1-724): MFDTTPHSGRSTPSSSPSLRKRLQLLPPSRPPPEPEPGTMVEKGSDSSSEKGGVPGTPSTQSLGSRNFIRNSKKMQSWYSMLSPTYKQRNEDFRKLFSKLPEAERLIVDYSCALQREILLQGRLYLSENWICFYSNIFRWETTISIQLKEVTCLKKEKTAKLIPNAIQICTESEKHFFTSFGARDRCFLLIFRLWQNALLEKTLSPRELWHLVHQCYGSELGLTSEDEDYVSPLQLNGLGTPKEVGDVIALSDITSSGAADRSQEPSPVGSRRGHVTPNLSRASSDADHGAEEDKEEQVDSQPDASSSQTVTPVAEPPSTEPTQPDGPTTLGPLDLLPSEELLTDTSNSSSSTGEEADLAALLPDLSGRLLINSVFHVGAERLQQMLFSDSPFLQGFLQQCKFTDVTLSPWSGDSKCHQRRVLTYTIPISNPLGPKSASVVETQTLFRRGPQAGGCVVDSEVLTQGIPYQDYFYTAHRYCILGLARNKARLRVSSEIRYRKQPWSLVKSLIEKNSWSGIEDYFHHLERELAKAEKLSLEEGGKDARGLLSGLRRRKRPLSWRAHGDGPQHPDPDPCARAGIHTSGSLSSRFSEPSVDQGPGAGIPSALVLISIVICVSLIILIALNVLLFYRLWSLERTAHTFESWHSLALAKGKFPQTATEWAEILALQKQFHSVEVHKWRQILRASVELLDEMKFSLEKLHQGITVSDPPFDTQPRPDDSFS
Assay: In-cell isothermal shift assay in intact Jurkat cells
Assay type: cell-based
Settings: 10 μM, 1 h, heated to 50 °C, Western blot
Method: Jurkat cells were cultured in RPMI 1640 GlutaMAX supplemented with 10% fetal bovine serum and 1% penicillin-streptomycin at 37 °C, 5% CO2.
In-cell thermal stability assay
To a 15 mL falcon tube were added 3 × 10^5 Jurkat cells in media and centrifuged at 300 × g for three minutes. The supernatant was aspirated, and the cells were resuspended in 4 mL media containing 0.1% DMSO. The cells were gently vortexed to avoid pelleting at 30 minutes intervals. After 1 h incubation at 37 °C and 5% CO2, the cells were washed twice with PBS and collected in 0.9 mL PBS and divided into eight aliquots, each 100 µL in PCR tubes. The aliquots were individually heated at different temperatures (Doppio 2 × 48 well Thermal cycler, VWR). After the heat treatment, 10 µL of PBS containing 4.4 %v/v NP-40 was added to each sample and cells were lysed by freeze-thaw four times. The cell lysates were transferred to 1.5 mL Eppendorf tubes and cen trifuged (Micro Star 30, VWR) at 25000 × g, 4 °C for 25 minutes. The cleared supernatants were collected and further analy sed […]
In-cell isothermal shift assay
To eight 15 mL falcon tubes were added 3 × 10^5 Jurkat cells in 1 mL of media per tube and incubated with indicated test compounds for one hour at 37 °C and 5% CO2. The cells were gently vortexed to avoid pelleting at 30 minutes intervals. After one hour incubation at 37 °C and 5% CO2, the cells were centrifuged at 300 × g for three minutes, washed once with PBS and centrifuged again at 300 × g for three minutes. The cells were then resuspended in 50 µL of PBS in PCR tubes. The samples were then heated at the given temperature (Eppendorf Mastercycler ep Gradie nt S). After the heat treatment, 5 µL of PBS containing 4.4 %v/v NP-40 were added to each sample and cells lysed by freeze-thaw four times. Finally, the cell lysates were completely transferred to 1.5 mL Eppendorf tubes and centrifuged (Micro Star 30, VMR) at 25000 × g, 4 °C for 25 minutes. The cleared supernatants were collected and further analysed by western blotting.
Sodium dodecyl sulfate-polyacrylamide gel electrophoresis and western blotting Sodium dodecyl sulfate-polyacrylamide gel electrophoresis (SDS-PAGE) experiments were carried out using 4-15% precast polyacrylamide gels (Bio-Rad) and run at a constant voltage of 100 V for ten minutes followed by 120 V for one hour. Semidry transfer onto a 0.2 µm nitrocellulose membrane was performed using Bio-Rad Trans-Blot Turbo Transfer System at 1.3 A for seven minutes. For chemiluminescent detection, membranes were blocked in 5% milk in TBST (tris -buffered saline with Tween; 137 mM NaCl, 19 mM Tris-base, 2.7 mM KCl and 0.1 %v/v Tween-20, blocking buffer) for one houre at room temperature. […]
Western blot quantification was performed using LI-COR Image Studio Lite. […]

Structure (SMILES) | Stabilization of Aster-A toward thermal unfolding in intact Jurkat cells
CC12CCC3CC1CCC21C(=Nc2ccc(N4CCOCC4)cc21)O3 (single isomer, unassigned; (-)) [(−)-19a] | showed stabilization of Aster-A
CC(C)Oc1ccc(C(=O)Nc2nc3c(s2)CN(C(=O)OC(C)(C)C)CC3)cc1 [Autogramin-2, reference compound] | showed stabilization of Aster-A
C[C@]12CC[C@@H]3C[C@H]1CC[C@@]21C(=Nc2ccc(C(F)(F)F)cc21)O3 [Compound 15g] | showed stabilization of Aster-A
CC(C)(C)OC(=O)N1CCN(c2ccc3c(c2)C24CCC5CC(CCC52C)OC4=N3)CC1 (stereo not shown) [Compound 19e] | increased stabilization of Aster-A in intact cells
